Experimental data as given in patent US12215085B2 (priority 2019, dated 2025).
Marks after values point to notes of the source that are not given here.

System: rats with common carotid artery occlusion-induced vascular dementia
Assay: Water maze test, common carotid artery occlusion-induced vascular dementia rats
Assay type: in vivo, rat
Details: succinate; for swimming path length for reaching the platform / time for reaching the platform / orientation angle for reaching the platform / speed for reaching the platform: x ± s; for Average speed / Number of crossing the platform / Orientation angle / Swimming path length in the platform area/total swimming path length × 100% / Time in the platform area / Time in the platform quadrants: Day 7
Excerpt: A rat blood vessel dementia model was made according to the references [ZHAO Xian-lin, FANG Xiu-bin, LI Dong-pei. Establishment of Vascular Dementia Model in Rats, J Chin Med Univ, 2002, 31 (3): 166-168; WANG Yong-yan, Zhang Bo-li, Editor-in-chief. Modern Chinese Medicine Clinic and Research on Vascular Dementia, People's Medical Publishing House, October 2003, First Version 214]: Chloral hydrate 0.4 g/kg was intraperitoneally injected for anesthetizing rats, and bilateral common carotid arteries were isolated and ligated. The animals were fed for 16 weeks, divided into groups on the last 7 days, and administered. The normal control group and the model group were administrated through the intragastric route with distilled water by 0.5 ml/100 g, the positive control group was administrated through the intragastric route with donepezil hydrochloride by 1.75 mg/kg (equivalent to 3.85 times the clinical daily dosage of 5 mg/70 kg), the low, medium and high-dose groups of Crystal Form A of octahydroaminoacridine succinate were administrated through the intragastric route with Crystal Form A of octahydroaminoacridine succinate by 0.7, 1.4 and 2.8 mg/kg (equivalent to 0.96, 1.92 and 3.85 times the clinical daily dosage of 8 mg/70 kg). The water maze test and the step-down test were carried out after continuous administration for 7 days, and the administration was continued during the test period. The water maze test was continuously performed for 7 days, in the first 6 days, in four different water entry points of quadrants 1, 2, 3 and 4, the time, the swimming path length, the orientation angle and the average speed of the rat reaching the platform were measured, meanwhile, the strategy for reaching the platform adopted by rats was observed, on the 7th day, the platform was removed, the number of rats crossing the platform in 2 minutes, the residence time in the platform area, the residence time in the platform quadrants, the percentage of the swimming path length in the platform area quadrants to the total swimming path length, the average speed and the orientation angle were measured. After the water maze test was finished, the step-down test was performed, and the number of electric shocks (or called as the error number) received by each rat within 5 minutes was recorded as the learning performance. The test was performed again after 24 hours, namely, the memory retention test, and the latent period for stepping-down the platform for the first time and the error number in five minutes were recorded. After the step-down test was finished, the brain was taken quickly for pathological examination, and the pathological changes of the hippocampus and the cortex were observed.

[1] = Day 4, 0.7 mg/kg intragastric, 0.7 mg/kg
[2] = Day 4, 1.4 mg/kg intragastric, 1.4 mg/kg
[3] = Day 4, 2.8 mg/kg intragastric, 2.8 mg/kg
[4] = Day 5, 0.7 mg/kg intragastric, 0.7 mg/kg
[5] = Day 5, 1.4 mg/kg intragastric, 1.4 mg/kg
[6] = Day 5, 2.8 mg/kg intragastric, 2.8 mg/kg
[7] = Day 6, 0.7 mg/kg intragastric, 0.7 mg/kg
[8] = Day 6, 1.4 mg/kg intragastric, 1.4 mg/kg
[9] = Day 6, 2.8 mg/kg intragastric, 2.8 mg/kg
[10] = 0.7 mg/kg intragastric, 0.7 mg/kg
[11] = 1.4 mg/kg intragastric, 1.4 mg/kg
[12] = 2.8 mg/kg intragastric, 2.8 mg/kg

**Q.** How did the “swimming path length for reaching the platform” value [1] turn out when `Nc1c2c(nc3c1CCCC3)CCCC2.O=C(O)CCC(=O)O` [Crystal Form A, 9-amino-1,2,3,4,5,6,7,8-octahydroacridine succinate] was run?
**A.** 838.00 ± 799.29 cm

**Q.** What about the “time for reaching the platform” value [1] of the same compound?
**A.** 35.34 ± 35.48 s

**Q.** And the “adopted strategy for reaching the platform (the peripheral type and the random type %)” value [2]?
**A.** 42.50** %

**Q.** And the “orientation angle for reaching the platform” value [2]?
**A.** 50.23 ± 20.86 °

**Q.** And the “speed for reaching the platform” value [2]?
**A.** 28.54 ± 9.09 cm/s

**Q.** What about the “swimming path length for reaching the platform” value [2] of the same compound?
**A.** 461.53 ± 216.01 cm

**Q.** And the “time for reaching the platform” value [2]?
**A.** 19.79 ± 10.95 s

**Q.** What about the “adopted strategy for reaching the platform (the peripheral type and the random type %)” value [3] of the same compound?
**A.** 62.50* %

**Q.** And the “orientation angle for reaching the platform” value [3]?
**A.** 57.00 ± 17.94 °

**Q.** And the “speed for reaching the platform” value [3]?
**A.** 27.72 ± 6.59 cm/s

**Q.** What about the “swimming path length for reaching the platform” value [3] of the same compound?
**A.** 827.58 ± 463.98 cm

**Q.** What about the “time for reaching the platform” value [3] of the same compound?
**A.** 22.79 ± 10.04 s

**Q.** What about the “adopted strategy for reaching the platform (the peripheral type and the random type %)” value [4] of the same compound?
**A.** 67.00%

**Q.** What about the “orientation angle for reaching the platform” value [4] of the same compound?
**A.** 62.38 ± 27.61 °

**Q.** What about the “speed for reaching the platform” value [4] of the same compound?
**A.** 24.14 ± 7.38 cm/s

**Q.** And the “swimming path length for reaching the platform” value [4]?
**A.** 878.23 ± 464.48 cm

**Q.** And the “time for reaching the platform” value [4]?
**A.** 71.16 ± 34.92 s

**Q.** And the “adopted strategy for reaching the platform (the peripheral type and the random type %)” value [5]?
**A.** 60.00%

**Q.** And the “orientation angle for reaching the platform” value [5]?
**A.** 55.03 ± 19.71 °

**Q.** And the “speed for reaching the platform” value [5]?
**A.** 29.15 ± 10.97 cm/s

**Q.** And the “swimming path length for reaching the platform” value [5]?
**A.** 515.67 ± 565.72 cm

**Q.** And the “time for reaching the platform” value [5]?
**A.** 16.28 ± 11.42 s

**Q.** What about the “adopted strategy for reaching the platform (the peripheral type and the random type %)” value [6] of the same compound?
**A.** 57.50%

**Q.** And the “orientation angle for reaching the platform” value [6]?
**A.** 55.78 ± 27.48 °

**Q.** And the “speed for reaching the platform” value [6]?
**A.** 27.44 ± 4.86 cm/s

**Q.** And the “swimming path length for reaching the platform” value [6]?
**A.** 676.75 ± 429.93 cm

**Q.** What about the “time for reaching the platform” value [6] of the same compound?
**A.** 21.57 ± 17.15 s

**Q.** What about the “adopted strategy for reaching the platform (the peripheral type and the random type %)” value [7] of the same compound?
**A.** 66.60%

**Q.** And the “orientation angle for reaching the platform” value [7]?
**A.** 46.48 ± 22.04 °

**Q.** What about the “speed for reaching the platform” value [7] of the same compound?
**A.** 22.02 ± 6.73 cm/s

**Q.** And the “swimming path length for reaching the platform” value [7]?
**A.** 606.62 ± 360.87 cm

**Q.** What about the “time for reaching the platform” value [7] of the same compound?
**A.** 37.72 ± 30.12 s

**Q.** What about the “adopted strategy for reaching the platform (the peripheral type and the random type %)” value [8] of the same compound?
**A.** 60.00* %

**Q.** What about the “orientation angle for reaching the platform” value [8] of the same compound?
**A.** 53.94 ± 12.47 °

**Q.** What about the “speed for reaching the platform” value [8] of the same compound?
**A.** 23.52 ± 2.43 cm/s

**Q.** What about the “swimming path length for reaching the platform” value [8] of the same compound?
**A.** 393.13 ± 236.85 cm

**Q.** And the “time for reaching the platform” value [8]?
**A.** 16.62 ± 8.69 s

**Q.** What about the “adopted strategy for reaching the platform (the peripheral type and the random type %)” value [9] of the same compound?
**A.** 55.00* %

**Q.** And the “orientation angle for reaching the platform” value [9]?
**A.** 52.70 ± 15.27 °

**Q.** And the “speed for reaching the platform” value [9]?
**A.** 23.55 ± 2.66 cm/s

**Q.** What about the “swimming path length for reaching the platform” value [9] of the same compound?
**A.** 433.81 ± 327.88 cm

**Q.** What about the “time for reaching the platform” value [9] of the same compound?
**A.** 18.98 ± 13.68 s

**Q.** And the Average speed [10]?
**A.** 24.04 ± 7.96 cm/s

**Q.** And the “Number of crossing the platform” value [10]?
**A.** 5.55 ± 4.47

**Q.** And the Orientation angle [10]?
**A.** 5.56 ± 4.47 °

**Q.** What about the “Swimming path length in the platform area/total swimming path length × 100%” value [10] of the same compound?
**A.** 26.83 ± 7.77%

**Q.** What about the “Time in the platform area” value [10] of the same compound?
**A.** 1.86 ± 1.78 s

**Q.** And the “Time in the platform quadrants” value [10]?
**A.** 33.93 ± 11.68 s

**Q.** What about the Average speed [11] of the same compound?
**A.** 28.44 ± 9.02 cm/s

**Q.** What about the “Number of crossing the platform” value [11] of the same compound?
**A.** 12.20 ± 5.99

**Q.** And the Orientation angle [11]?
**A.** 12.20 ± 5.99 °

**Q.** And the “Swimming path length in the platform area/total swimming path length × 100%” value [11]?
**A.** 31.89 ± 9.92%

**Q.** And the “Time in the platform area” value [11]?
**A.** 3.18 ± 2.02 s

**Q.** What about the “Time in the platform quadrants” value [11] of the same compound?
**A.** 40.31 ± 12.72 s

**Q.** What about the Average speed [12] of the same compound?
**A.** 26.15 ± 5.40 cm/s

**Q.** And the “Number of crossing the platform” value [12]?
**A.** 10.40 ± 4.40

**Q.** And the Orientation angle [12]?
**A.** 10.40 ± 4.40 °

**Q.** And the “Swimming path length in the platform area/total swimming path length × 100%” value [12]?
**A.** 28.40 ± 8.75%

**Q.** And the “Time in the platform area” value [12]?
**A.** 3.23 ± 3.70 s

**Q.** And the “Time in the platform quadrants” value [12]?
**A.** 33.72 ± 10.48 s
